The record followed here is patent US7528107B2, “Methods of treating inflammation in mammalian tissues comprising administering human alpha-defensins” (Auburn University, priority 2005, dated 2009).

Format in all cases: cell-based
Test [1] concerns IL-1β release from human monocytes. The test is described as follows: ATP mediated proIL-1β / mature IL-1β release from LPS-activated human monocytes (FIG. 2, FIG. 3). The following applies: for processing of proIL-1β after it is released extracellularly: LPS-activated human monocytes treated with ATP, then α-defensins; for ATP-mediated IL-1β release from human monocytes: summary statement. As for the experimental part:
(§1) Lipopolysaccharide (LPS) activated, ^35S-methionine-labeled human monocytes treated with human α-defensins HNP-1 or HD-5 in the presence and absence of ATP were examined. Media and cell-associated fractions were harvested separately and IL-1β was recovered from each by immunoprecipitation. The resulting immuno-precipitates were analyzed by SDS-PAGE and autoradiography. Referring now to FIG. 2, in the absence of ATP, LPS activated monocytes released about 10% of ^35S-methionine-labeled proIL-1β (31 kDa) into the media, but no mature (17 kDa) IL-1β was detected. As expected, addition of ATP to the LPS-activated monocyte culture led to the release of 90% of newly synthesized proIL-1β from the cell and more than 90% of the proIL-1β was processed to mature IL-1β and detected in the media.
(§2) Peripheral blood monocytes where isolated from healthy volunteers and patients with inflammatory bowel disease and suspended in monocyte maintenance medium (RPMI 1640 medium, 5% FBS 25 mM HEPES and 1% Pen/Strep). Blood samples from healthy volunteers were collected at the Auburn University Medical Clinic under an approved protocol. Blood samples from inflammatory bowel disease patients were provided by Dr. W. Park McGehee of Internal Medicine Associates of Opelika, Ala., U.S.A.
(§3) Monocytes were first primed with lipopolysaccharides (LPS). Monocytes were allowed to adhere for two hours, after which medium supernatants were discarded. Attached cells were rinsed twice with maintenance medium and incubated in 1 ml of maintenance medium overnight at 37° C. in a 5% CO2 environment. The following morning LPS was added to some walls to achieve a final concentration of 10 ng/ml and the cultures were activated for two hours at 37° C. The media was then removed and 1 ml of fresh medium (RPMI 1640 containing 1% FVS 25 mM HEPES and 5 mM NaHCO3) was added to each well. These LPS-activated monocytes where then treated with ATP and subsequently, monocytes were selectively treated with α-defensins for interleukin-1β post transitional processing and release studies.
Human α-defensin HNP-1 was obtained from Peptide International of Louisville, Ky., U.S.A. Recombinant human α-defensin HD-5 was provided by Dr. Edith Porter of California State University, Los Angeles, U.S.A. The quality of the synthetic peptides were verified by their anti-bacterial activity. Synthetic human α-defensin HNP-1 was further purified by HPLC and compared to the natural HNP-1 by acid-urea PAGE. LPS-activated human monocytes were treated with 0, 1, 10 and 100 micrograms at 37° C. for three hours. It was also treated with 2 mm ATP for IL-1β maturation. Supernatants were then collected after a 5 minute centrifugation in microphage tubes. The concentration of mature IL-1β and the supernatants was quantified by ELISA(R&D Systems). Because the ELISA is reported by the manufacturer to recognize both pro and mature IL-1β species, presence of proIL-1β and mature IL-1β in the supernatant and cell lysates was also determined by western blot analysis. Briefly, proteins were precipitated from the supernatants by addition of trichloroacetic acid (TCA: 7.5% final concentration) and cholic acid (0.1% final concentration) to each sample. The percipate proteins were washed twice with 100% acetone to extract residual TCA and dissolved in 0.1 ml of SDS-PAGE sampled buffer. The cells where then washed once with PBS and lysed into 0.2 ml of lysis washed once with PBS and lysed into 0.2 ml of lysis buffer (25 mM HEPES 300 mM NaCl 1.5 mM MgCl2, 0.2 mM EDTA, 1% triton X-100, 2 mg/ml leupeptin and 10 mg/ml PMF). Cell lysates and TSA precipitated proteins from the supernatants where then subjected to 12% SDS-PAGE gels and then transferred to PVDV membranes for western blot analysis. IL-1β was probed with goat anti-IL-1β antibody and detected with the rabbit anti-goat IgG-horesradish peroxidase conjugate. […]

Test [2] shares this test system. The description is as above.
Test [3] has the same test system. The test is described as follows: proIL-1β / mature IL-1β release from LPS-activated human monocytes (FIG. 2). The settings on record: for mature IL-1β in LPS activated cells / proIL-1β in LPS activated cells: overall statement, no concentration given; for LPS-mediated IL-1β release from human monocytes: summary statement. On the procedure: as §1, §2, §3
Human α-defensin HNP-1 was obtained from Peptide International of Louisville, Ky., U.S.A. Recombinant human α-defensin HD-5 was provided by Dr. Edith Porter of California State University, Los Angeles, U.S.A. The quality of the synthetic peptides were verified by their anti-bacterial activity. Synthetic human α-defensin HNP-1 was further purified by HPLC and compared to the natural HNP-1 by acid-urea PAGE. LPS-activated human monocytes were treated with 0, 1, 10 and 100 micrograms at 37° C. for three hours. It was also treated with 2 mm ATP for IL-1β maturation. Supernatants were then collected after a 5 minute centrifugation in microphage tubes. The concentration of mature IL-1β and the supernatants was quantified by ELISA(R&D Systems). Because the ELISA is reported by the manufacturer to recognize both pro and mature IL-1β species, presence of proIL-1β and mature IL-1β in the supernatant and cell lysates was also determined by western blot analysis. Briefly, proteins were precipitated from the supernatants by addition of trichloroacetic acid (TCA: 7.5% final concentration) and cholic acid (0.1% final concentration) to each sample. The percipate proteins were washed twice with 100% acetone to extract residual TCA and dissolved in 0.1 ml of SDS-PAGE sampled buffer. The cells where then washed once with PBS and lysed into 0.2 ml of lysis washed once with PBS and lysed into 0.2 ml of lysis buffer (25 mM HEPES 300 mM NaCl 1.5 mM MgCl2, 0.2 mM EDTA, 1% triton X-100, 2 mg/ml leupeptin and 10 mg/ml PMF). Cell lysates and TSA precipitated proteins from the supernatants where then subjected to 12% SDS-PAGE gels and then transferred to PVDV membranes for western blot analysis. IL-1β was probed with goat anti-IL-1β antibody and detected with the rabbit anti-goat IgG-horesradish peroxidase conjugate.

Test [4] has the same test system.
Where [5] appears, read: addition of ATP to the LPS-activated monocyte culture, 35S-methionine label.
Setting [6] is: FIG. 2 column 3, 20 ng/ml LPS + ATP + YVAD-CMK 100 μM.
Where [7] appears, read: FIG. 3 columns 2-4, 20-100 μg/ml of HNP-1, 1 mM ATP, 3 hours.
Where [8] appears, read: FIG. 2 column 7, 10 ng/ml LPS 2 hours.
The mark [9] stands for this setting: FIG. 2 columns 8 and 9, increase of 20-50 mg HNP-1.
[10] abbreviates: overall statement, no concentration given.
Setting [11] is: physiological concentrations of 5 ug to 100 ug/ml.
Where [12] appears, read: FIG. 3 columns 5 and 6, 20 and 100 μg/ml of HD-1, 1 mM ATP, 3 hours.

Entries after “also recorded” stand apart in the source; their conditions may differ.

`Nc1ncnc2c1ncn2[C@@H]1O[C@H](COP(=O)(O)OP(=O)(O)OP(=O)(O)O)[C@@H](O)[C@H]1O` [ATP, Adenosine triphosphate, reference compound]: in test [1] (setting [5]), the “proIL-1β processed to mature IL-1β and detected in the media” value was “more than 90%”; the “release of newly synthesized proIL-1β from the cell” value is on record as 90%.

Regarding `CC(=O)N[C@@H](Cc1ccc(O)cc1)C(=O)N[C@H](C(=O)N[C@@H](C)C(=O)N[C@@H](CC(=O)O)C(=O)CCl)C(C)C` [YVAD-CMK, reference compound], in test [2] (setting [6]), the “mature IL-1β produced (western blot)” value is reported as “no mature IL-1β proteins” and the “proIL-1β produced (western blot)” value was “substantial amount of proIL-1β”.

human neutrophil defensin 1 [HNP-1]: in test [2] (setting [7]), the “mature IL-1β from ATP activated cells” value was “inhibited in a dose dependant manner” and the “proIL-1β release from ATP activated cells” value is recorded as “no proIL-1β is released”. Besides, in test [3] (20 ug/ml of HNP-1, FIG. 2), the proIL-1β production result was “sufficient to block”. Moreover, in test [3] (setting [8]), the “mature IL-1β (western blot)” value is recorded as “no mature IL-1β” and the “proIL-1β (western blot)” value is “some proIL-1β”. For the same molecule, in test [3] (setting [9]), the “mature IL-1β (western blot)” value is given as “no mature IL-1β proteins were produced” and the “proIL-1β (western blot)” value is listed as “no proIL-1β”. Moreover, in test [3], the “mature IL-1β in LPS activated cells” value is reported as “substantially completely block”, the “proIL-1β in LPS activated cells” value is on record as “inhibit; also recorded: substantially completely block” and the “LPS-mediated IL-1β release from human monocytes” value was “blocks”. Further, the “Staphylococcus aureus alpha-toxin-mediated IL-1β release from human monocytes” value in test [4] is listed as “blocks”. In test [1], the “processing of proIL-1β after it is released extracellularly” value is reported as “does not appear to affect” and the “ATP-mediated IL-1β release from human monocytes” value is listed as “blocks”. Moreover, in test [1] (setting [10]), the “ATP mediated proIL-1β release” value is “blocked in a dose dependant manner; also recorded: block ATP mediated proIL-1β release in a dose dependant manner”. Further, in test [1] (setting [11]), the “ATP mediated proIL-1β release” value is “blocked ATP mediated proIL-1β release in a dose dependant manner”.

For “human α-defensin 5 (ATCYCRTGRCATRESLSGVCEISGRLYRLCCR; ALPHA DEFENSIN HD-5; listed as Homo sapiens) [Recombinant human α-defensin produced by Paneth cells]”, in test [2] (setting [12]), the “mature IL-1β from ATP activated human monocytes” value is “inhibited in a dose dependant manner” and the “proIL-1β release from ATP activated human monocytes” value is on record as “no proIL-1β is released”. In addition, the “release of proIL-1β from the LPS-activated monocyte culture” value in test [3] (10 ug/ml of HD-5, FIG. 2) is “completely blocked”. Also, the “proIL-1β expressed (western blot)” value in test [3] (FIG. 2 columns 4, 5, 6, increasing amount of HD-5, 4 million cell equivalents activated with LPS) was “no proIL-1β”. In test [3], the “mature IL-1β in LPS activated cells” value was “substantially completely block”, the “proIL-1β in LPS activated cells” value was “inhibit; also recorded: substantially completely block” and the “LPS-mediated IL-1β release from human monocytes” value was “blocks”. In addition, the “Staphylococcus aureus alpha-toxin-mediated IL-1β release from human monocytes” value in test [4] was “blocks”. For the same molecule, in test [1], the “processing of proIL-1β after it is released extracellularly” value was “does not appear to affect” and the “ATP-mediated IL-1β release from human monocytes” value is “blocks”. In addition, the “ATP mediated proIL-1β release” value in test [1] (setting [10]) is given as “blocked in a dose dependant manner; also recorded: block ATP mediated proIL-1β release in a dose dependant manner”. Also, the “ATP mediated proIL-1β release” value in test [1] (setting [11]) is on record as “blocked ATP mediated proIL-1β release in a dose dependant manner”.
